Results from US10597388B2, “Pyridazinone herbicides” (FMC CORPORATION, priority 2014, dated 2020).

What was measured:
Type in all cases: in vivo
[1] = test system: horseweed (Conyza canadensis); assay: Test E greenhouse herbicide test, pre- and postemergence; details: Postemergence
Outline: (§1)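 Pre- and postemergence sprays, same solvent–surfactant formulation. Substrate: silt loam (pre), peat-based mix (post, 1–4 leaf, 2–18 cm). Readout: visual control rating 0–100 against controls at 14–21 d.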

[2] = test system: foxtail, green (green foxtail, Setaria viridis); assay: as above; details: Preemergence
Outline: as §1

kochia (Kochia scoparia) = assay: as above
Outline: as §1

[3] = test system: arrowleaf sida (Sida rhombifolia); assay: as above
Outline: as §1

[4] = test system: velvetleaf (Abutilon theophrasti); assay: as above; details: Preemergence
Outline: as §1

[5] = test system: nightshade (eastern black nightshade, Solanum ptycanthum); assay: as above; details: Preemergence
Outline: as §1

soybean (Glycine max) = assay: as above
Outline: as §1

[6] = test system: momingglory (Ipomoea coccinea); assay: as above; details: Preemergence
Outline: as §1

[7] = test system: foxtail, giant (giant foxtail, Setaria faberii); assay: as above; details: Preemergence
Outline: as §1

[8] = test system: crabgrass, large (large crabgrass, Digitaria sanguinalis); assay: as above; details: Preemergence
Outline: as §1

[9] = test system: dayflower (Virginia (VA) dayflower, Commelina virginica); assay: as above
Outline: as §1

[10] = test system: Italian ryegrass (Lolium multiflorum); assay: as above
Outline: as §1

[11] = test system: pigweed, palmer (palmer pigweed, Amaranthus palmeri); assay: as above
Outline: as §1

[12] = test system: johnsongrass (Sorghum halepense); assay: as above; details: Preemergence
Outline: as §1

[13] = test system: waterhemp_RES2 (ALS & HPPD resistant common waterhemp, Amaranthus rudis); assay: Test E greenhouse herbicide test, postemergence
Outline: (§2)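 Values are visual ratings from 0 (no effect) to 100 (complete control), scored relative to untreated controls 14 to 21 d after treatment. Plants were 1- to 4-leaf seedlings (2 to 18 cm) in potting medium and received postemergence applications of formulated test chemicals.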

[14] = test system: waterhemp_RES1 (ALS & Triazine resistant common waterhemp, Amaranthus rudis); assay: Test E greenhouse herbicide test, postemergence
Outline: as §2

[15] = 62 g ai/ha, scale 0 to 100 (0 no effect, 100 complete control)
[16] = 125 g ai/ha, scale 0 to 100 (0 no effect, 100 complete control)
[17] = 250 g ai/ha, scale 0 to 100 (0 no effect, 100 complete control)
[18] = 31 g ai/ha, visual, scale 0 no effect to 100 complete control
[19] = 31 g ai/ha, scale 0 to 100, 0 no effect, 100 complete control
[20] = 250 g ai/ha, visual, scale 0 no effect to 100 complete control
[21] = 62 g ai/ha, Postemergence, scale 0 to 100 (0 no effect, 100 complete control)
[22] = 62 g ai/ha, Preemergence, scale 0 to 100 (0 no effect, 100 complete control)
[23] = 125 g ai/ha, Postemergence, scale 0 to 100 (0 no effect, 100 complete control)
[24] = 125 g ai/ha, Preemergence, scale 0 to 100 (0 no effect, 100 complete control)
[25] = 250 g ai/ha, Postemergence, scale 0 to 100 (0 no effect, 100 complete control)
[26] = Postemergence, 31 g ai/ha, visual, scale 0 no effect to 100 complete control
[27] = Preemergence, 31 g ai/ha, scale 0 to 100, 0 no effect, 100 complete control
[28] = Preemergence, 250 g ai/ha, visual, scale 0 no effect to 100 complete control

Question: `Cc1nn(C)c(=O)c(-c2ccc(Br)c3ccccc23)c1O` [Compound 75] was tested. Which “Plant response rating, Horseweed” value [1, 15] did it give?
Answer: 50

Question: And the “Plant response rating, Horseweed” value [1, 16]?
Answer: 60

Question: What about the “Plant response rating, Horseweed” value [1, 17] of the same compound?
Answer: 50

Question: And the “Plant response rating, Horseweed” value [1, 18]?
Answer: 40

Question: And the “Plant response rating, Foxtail, Green” value [2, 15]?
Answer: 0

Question: What about the “Plant response rating, Foxtail, Green” value [2, 16] of the same compound?
Answer: 0

Question: And the “Plant response rating, Foxtail, Green” value [2, 19]?
Answer: 0

Question: And the “Plant response rating, Foxtail, Green” value [2, 20]?
Answer: 90

Question: And the “Plant response rating, Kochia” value (kochia (Kochia scoparia); [21])?
Answer: 98

Question: What about the “Plant response rating, Kochia” value (kochia (Kochia scoparia); [22]) of the same compound?
Answer: 100

Question: And the “Plant response rating, Kochia” value (kochia (Kochia scoparia); [23])?
Answer: 100

Question: What about the “Plant response rating, Kochia” value (kochia (Kochia scoparia); [24]) of the same compound?
Answer: 100

Question: What about the “Plant response rating, Kochia” value (kochia (Kochia scoparia); [25]) of the same compound?
Answer: 100

Question: And the “Plant response rating, Kochia” value (kochia (Kochia scoparia); [26])?
Answer: 90

Question: What about the “Plant response rating, Kochia” value (kochia (Kochia scoparia); [27]) of the same compound?
Answer: 98

Question: And the “Plant response rating, Kochia” value (kochia (Kochia scoparia); [28])?
Answer: 100

Question: And the “Plant response rating, Arrowleaf Sida” value [3, 21]?
Answer: 70

Question: What about the “Plant response rating, Arrowleaf Sida” value [3, 22] of the same compound?
Answer: 75

Question: And the “Plant response rating, Arrowleaf Sida” value [3, 23]?
Answer: 80

Question: And the “Plant response rating, Arrowleaf Sida” value [3, 24]?
Answer: 90

Question: What about the “Plant response rating, Arrowleaf Sida” value [3, 25] of the same compound?
Answer: 80

Question: And the “Plant response rating, Arrowleaf Sida” value [3, 26]?
Answer: 70

Question: What about the “Plant response rating, Arrowleaf Sida” value [3, 27] of the same compound?
Answer: 50

Question: What about the “Plant response rating, Arrowleaf Sida” value [3, 28] of the same compound?
Answer: 98

Question: What about the “Plant response rating, Velvetleaf” value [4, 15] of the same compound?
Answer: 85

Question: And the “Plant response rating, Velvetleaf” value [4, 16]?
Answer: 100

Question: What about the “Plant response rating, Velvetleaf” value [4, 19] of the same compound?
Answer: 35

Question: What about the “Plant response rating, Velvetleaf” value [4, 20] of the same compound?
Answer: 98

Question: And the “Plant response rating, Nightshade” value [5, 15]?
Answer: 0

Question: What about the “Plant response rating, Nightshade” value [5, 16] of the same compound?
Answer: 90

Question: What about the “Plant response rating, Nightshade” value [5, 19] of the same compound?
Answer: 0

Question: And the “Plant response rating, Nightshade” value [5, 20]?
Answer: 100

Question: What about the “Plant response rating, Soybean” value (soybean (Glycine max); [21]) of the same compound?
Answer: 70

Question: And the “Plant response rating, Soybean” value (soybean (Glycine max); [22])?
Answer: 35

Question: And the “Plant response rating, Soybean” value (soybean (Glycine max); [23])?
Answer: 70

Question: And the “Plant response rating, Soybean” value (soybean (Glycine max); [24])?
Answer: 40

Question: And the “Plant response rating, Soybean” value (soybean (Glycine max); [25])?
Answer: 75

Question: What about the “Plant response rating, Soybean” value (soybean (Glycine max); [26]) of the same compound?
Answer: 70

Question: And the “Plant response rating, Soybean” value (soybean (Glycine max); [27])?
Answer: 0

Question: And the “Plant response rating, Soybean” value (soybean (Glycine max); [28])?
Answer: 70

Question: What about the “Plant response rating, Morningglory” value [6, 15] of the same compound?
Answer: 30

Question: What about the “Plant response rating, Morningglory” value [6, 16] of the same compound?
Answer: 60

Question: What about the “Plant response rating, Morningglory” value [6, 19] of the same compound?
Answer: 0

Question: And the “Plant response rating, Morningglory” value [6, 20]?
Answer: 100

Question: And the “Plant response rating, Foxtail, Giant” value [7, 15]?
Answer: 5

Question: What about the “Plant response rating, Foxtail, Giant” value [7, 16] of the same compound?
Answer: 35

Question: What about the “Plant response rating, Foxtail, Giant” value [7, 19] of the same compound?
Answer: 0

Question: What about the “Plant response rating, Foxtail, Giant” value [7, 20] of the same compound?
Answer: 75

Question: And the “Plant response rating, Crabgrass, Large” value [8, 15]?
Answer: 0

Question: And the “Plant response rating, Crabgrass, Large” value [8, 16]?
Answer: 0

Question: And the “Plant response rating, Crabgrass, Large” value [8, 19]?
Answer: 0

Question: What about the “Plant response rating, Crabgrass, Large” value [8, 20] of the same compound?
Answer: 30

Question: What about the “Plant response rating, Dayflower, VA” value [9, 21] of the same compound?
Answer: 50

Question: And the “Plant response rating, Dayflower, VA” value [9, 22]?
Answer: 10

Question: And the “Plant response rating, Dayflower, VA” value [9, 23]?
Answer: 50

Question: What about the “Plant response rating, Dayflower, VA” value [9, 24] of the same compound?
Answer: 60

Question: And the “Plant response rating, Dayflower, VA” value [9, 25]?
Answer: 65

Question: And the “Plant response rating, Dayflower, VA” value [9, 26]?
Answer: 30

Question: And the “Plant response rating, Dayflower, VA” value [9, 27]?
Answer: 10

Question: And the “Plant response rating, Dayflower, VA” value [9, 28]?
Answer: 75

Question: What about the “Plant response rating, Ryegrass, Italian” value [10, 21] of the same compound?
Answer: 80

Question: And the “Plant response rating, Ryegrass, Italian” value [10, 22]?
Answer: 100

Question: What about the “Plant response rating, Ryegrass, Italian” value [10, 23] of the same compound?
Answer: 85

Question: What about the “Plant response rating, Ryegrass, Italian” value [10, 24] of the same compound?
Answer: 100

Question: And the “Plant response rating, Ryegrass, Italian” value [10, 25]?
Answer: 90

Question: And the “Plant response rating, Ryegrass, Italian” value [10, 26]?
Answer: 75

Question: What about the “Plant response rating, Ryegrass, Italian” value [10, 27] of the same compound?
Answer: 100

Question: What about the “Plant response rating, Ryegrass, Italian” value [10, 28] of the same compound?
Answer: 100

Question: What about the “Plant response rating, Pigweed, Palmer” value [11, 21] of the same compound?
Answer: 70

Question: And the “Plant response rating, Pigweed, Palmer” value [11, 22]?
Answer: 85

Question: What about the “Plant response rating, Pigweed, Palmer” value [11, 23] of the same compound?
Answer: 100

Question: And the “Plant response rating, Pigweed, Palmer” value [11, 24]?
Answer: 50

Question: And the “Plant response rating, Pigweed, Palmer” value [11, 25]?
Answer: 100

Question: And the “Plant response rating, Pigweed, Palmer” value [11, 26]?
Answer: 70

Question: And the “Plant response rating, Pigweed, Palmer” value [11, 27]?
Answer: 30

Question: What about the “Plant response rating, Pigweed, Palmer” value [11, 28] of the same compound?
Answer: 100

Question: And the “Plant response rating, Johnsongrass” value [12, 15]?
Answer: 0

Question: And the “Plant response rating, Johnsongrass” value [12, 16]?
Answer: 10

Question: And the “Plant response rating, Johnsongrass” value [12, 19]?
Answer: 0

Question: What about the “Plant response rating, Johnsongrass” value [12, 20] of the same compound?
Answer: 15

Question: What about the “Plant response rating, Waterhemp_RES2” value [13, 18] of the same compound?
Answer: 60

Question: And the “Plant response rating, Waterhemp_RES2” value [13, 15]?
Answer: 60

Question: What about the “Plant response rating, Waterhemp_RES2” value [13, 16] of the same compound?
Answer: 60

Question: What about the “Plant response rating, Waterhemp_RES2” value [13, 17] of the same compound?
Answer: 75

Question: And the “Plant response rating, Waterhemp_RES1” value [14, 18]?
Answer: 90

Question: What about the “Plant response rating, Waterhemp_RES1” value [14, 15] of the same compound?
Answer: 90

Question: What about the “Plant response rating, Waterhemp_RES1” value [14, 16] of the same compound?
Answer: 95

Question: And the “Plant response rating, Waterhemp_RES1” value [14, 17]?
Answer: 90
